From patent publication US10633386B2, “BET protein degraders” (THE REGENTS OF THE UNIVERSITY OF MICHIGAN, priority 2016, dated 2020)

Experiments:
MDA-MB-231 = assay: Cell growth inhibition (CellTiter-Glo), MDA-MB-231; format: cell-based, human; details: MDA-MB-231 cells, 4 days
Description: (§1) Cell growth inhibitory activity of representative BET bromodomain degraders was determined using CellTiter-Glo® Luminescent Cell Viability Assay. Cells were seeded in 384-well white opaque cell culture plates at a density of 2,000 cells/well with serially diluted compounds and incubated at 37° C. in an atmosphere of 95% air and 5% CO2 for 4 days. Cell viability was determined using the CellTiter-Glo® Luminescent Cell Viability Assay Kit (Promega, Madison, Wis.) according to the manufacture's instruction. Briefly, a volume of CellTiter-Glo® Reagent equal to the volume of cell culture medium was added to each well, and then the plates were incubated at room temperature for 10-20 minutes. The luminescent signal was measured using a Tecan Infinite M1000 multimode microplate reader (Tecan, Morrisville, N.C.). The half maximal inhibitory concentration (IC50) was calculated using the GraphPad Prism 5 software (GraphPad Software, La Jolla, Calif.).

MOLM-13 = assay: Cell growth inhibition (CellTiter-Glo), MOLM-13; format: cell-based; details: MOLM-13 cells, 4 days
Description: as §1

Row | SMILES | IC50 (MDA-MB-231; Homo sapiens, MDA-MB-231, 96 h) [nM] | IC50 (MOLM-13; Homo sapiens, MOLM-13, 96 h) [nM] | IC50 (MOLM-13) [nM] | IC50 (MDA-MB-231) [nM]
1 | CCn1nc(C2CC2)cc1Nc1nc(C(=O)NCCCCNC(=O)COc2cccc3c2C(=O)N(C2CCC(=O)NC2=O)C3=O)nc2[nH]c3cc(-c4c(C)noc4C)c(OC)cc3c12 (stereo not shown) [Cpd. No. 1] | 49.5 | 12.2 | – | –
2 | CCn1nc(C2CC2)cc1Nc1nc(C(=O)NCCCOCCOCCOCCCNC(=O)COc2cccc3c2C(=O)N(C2CCC(=O)NC2=O)C3=O)nc2[nH]c3cc(-c4c(C)noc4C)c(OC)cc3c12 (stereo not shown) [Cpd. No. 2] | 75.6 | 16.3 | – | –
3 | CCn1nc(C2CC2)cc1Nc1nc(C(=O)NCCCOCCOCCOCCCNC(=O)CNc2cccc3c2C(=O)N(C2CCC(=O)NC2=O)C3=O)nc2[nH]c3cc(-c4c(C)noc4C)c(OC)cc3c12 (stereo not shown) [Cpd. No. 3] | 94.8 | 18.2 | – | –
4 | CCn1nc(C2CC2)cc1Nc1nc(C(=O)NCCOCCOCCOCCOc2cccc3c2C(=O)N(C2CCC(=O)NC2=O)C3=O)nc2[nH]c3cc(-c4c(C)noc4C)c(OC)cc3c12 (stereo not shown) [Cpd. No. 5] | 50 | 6.9 | – | –
5 | CCn1nc(C2CC2)cc1Nc1nc(C(=O)NCCNc2cccc3c2C(=O)N(C2CCC(=O)NC2=O)C3=O)nc2[nH]c3cc(-c4c(C)noc4C)c(OC)cc3c12 (stereo not shown) [Cpd. No. 7] | 453 | 65 | – | –
6 | CCn1nc(C2CC2)cc1Nc1nc(C(=O)NCCCNc2cccc3c2C(=O)N(C2CCC(=O)NC2=O)C3=O)nc2[nH]c3cc(-c4c(C)noc4C)c(OC)cc3c12 (stereo not shown) [Cpd. No. 8] | 57.6 | 6.3 | – | –
7 | CCn1nc(C2CC2)cc1Nc1nc(C(=O)NCCOCCNc2cccc3c2C(=O)N(C2CCC(=O)NC2=O)C3=O)nc2[nH]c3cc(-c4c(C)noc4C)c(OC)cc3c12 (stereo not shown) [Cpd. No. 12] | 109 | 17.8 | – | –
8 | CCn1nc(C2CC2)cc1Nc1nc(C(=O)NCCOCCOCCNc2cccc3c2C(=O)N(C2CCC(=O)NC2=O)C3=O)nc2[nH]c3cc(-c4c(C)noc4C)c(OC)cc3c12 (stereo not shown) [Cpd. No. 13] | 267 | – | 8 | –
9 | CCn1nc(C2CC2)cc1Nc1nc(C(=O)NCCOCCOCCOCCCc2cccc3c2C(=O)N(C2CCC(=O)NC2=O)C3=O)nc2[nH]c3cc(-c4c(C)noc4C)c(OC)cc3c12 (stereo not shown) [Cpd. No. 61] | 69.6 | 1.5 | – | –
10 | CCn1nc(C2CC2)cc1Nc1nc(C(=O)NCCOCCOCCC(=O)Nc2cccc3c2CN(C2CCC(=O)NC2=O)C3=O)nc2[nH]c3cc(-c4c(C)noc4C)c(OC)cc3c12 (stereo not shown) [Cpd. No. 63] | 231 | 41.5 | – | –
11 | CCn1nc(C2CC2)cc1Nc1nc(C(=O)NCCOCCOCCOCCC(=O)Nc2cccc3c2CN(C2CCC(=O)NC2=O)C3=O)nc2[nH]c3cc(-c4c(C)noc4C)c(OC)cc3c12 (stereo not shown) [Cpd. No. 64] | 98.7 | 23.6 | – | –
12 | CCn1nc(C2CC2)cc1Nc1nc(C(=O)NCCOCCOCCOCCOCCOCCOCCOCCNc2cccc3c2C(=O)N(C2CCC(=O)NC2=O)C3=O)nc2[nH]c3cc(-c4c(C)noc4C)c(OC)cc3c12 (stereo not shown) [compound 16] | 128 | 10.2 | – | –
13 | CCn1nc(C2CC2)cc1Nc1nc(CNCCCCNc2cccc3c2C(=O)N(C2CCC(=O)NC2=O)C3=O)nc2[nH]c3cc(-c4c(C)noc4C)c(OC)cc3c12 (stereo not shown) [compound 17] | 330 | 115 | – | –
14 | CCn1nc(C2CC2)cc1Nc1nc(CNCCCCNc2cccc3c2CN(C2CCC(=O)NC2=O)C3=O)nc2[nH]c3cc(-c4c(C)noc4C)c(OC)cc3c12 (stereo not shown) [compound 19] | 1420 | 379 | – | –
15 | CCn1nc(C2CC2)cc1Nc1nc(CNCCCOCCCCOCCCNc2cccc3c2C(=O)N(C2CCC(=O)NC2=O)C3=O)nc2[nH]c3cc(-c4c(C)noc4C)c(OC)cc3c12 (stereo not shown) [compound 21] | 543 | 84.6 | – | –
16 | CCn1nc(C2CC2)cc1Nc1nc(C(=O)NCCOCCNc2cccc3c2CN(C2CCC(=O)NC2=O)C3=O)nc2[nH]c3cc(-c4c(C)noc4C)c(OC)cc3c12 (stereo not shown) [compound 22] | 63.8 | 12.4 | – | –
17 | CCn1nc(C2CC2)cc1Nc1nc(C(=O)NCCOCCOCCNc2cccc3c2CN(C2CCC(=O)NC2=O)C3=O)nc2[nH]c3cc(-c4c(C)noc4C)c(OC)cc3c12 (stereo not shown) [compound 23] | 83.4 | 16.7 | – | –
18 | CCn1nc(C2CC2)cc1Nc1nc(C(=O)NCCOCCOCCOCCNc2cccc3c2CN(C2CCC(=O)NC2=O)C3=O)nc2[nH]c3cc(-c4c(C)noc4C)c(OC)cc3c12 (stereo not shown) [compound 24] | 74.9 | 12.1 | – | –
19 | CCn1nc(C2CC2)cc1Nc1nc(C(=O)NCCOCCOCCNc2cccc3c2C(=O)N(C2CCC(=O)NC2=O)C3=O)nc2[nH]c3cc(-c4c(C)noc4C)c(OC)cc3c12 (stereo not shown) [compound 65] | – | – | 47.1 | 438
20 | CCn1nc(C2CC2)cc1Nc1nc(C(=O)NCCCCNc2cccc3c2CN(C2CCC(=O)NC2=O)C3=O)nc2[nH]c3cc(-c4c(C)noc4C)c(OC)cc3c12 (stereo not shown) [compound 66] | 275 | 47.3 | – | –

Other lines, results leading:

Row | IC50 (MDA-MB-231; Homo sapiens, MDA-MB-231, 96 h) [nM] | IC50 (MOLM-13; Homo sapiens, MOLM-13, 96 h) [nM] | IC50 (MOLM-13) [nM] | IC50 (MDA-MB-231) [nM] | SMILES
21 | 24.4 | 0.64 | – | – | CCn1nc(C2CC2)cc1Nc1nc(C(=O)NCCOCCCc2cccc3c2CN(C2CCC(=O)NC2=O)C3=O)nc2[nH]c3cc(-c4c(C)noc4C)c(OC)cc3c12 (stereo not shown) [Cpd. No. 59]
22 | 11.2 | 1.2 | – | – | CCn1nc(C2CC2)cc1Nc1nc(C(=O)NCCCCCc2cccc3c2C(=O)N(C2CCC(=O)NC2=O)C3=O)nc2[nH]c3cc(-c4c(C)noc4C)c(OC)cc3c12 (stereo not shown) [Cpd. No. 60]
23 | 24.7 | 3.4 | – | – | CCn1nc(C2CC2)cc1Nc1nc(C(=O)NCCOCCCc2cccc3c2C(=O)N(C2CCC(=O)NC2=O)C3=O)nc2[nH]c3cc(-c4c(C)noc4C)c(OC)cc3c12 (stereo not shown) [Cpd. No. 62]
24 | 4.8 | 0.9 | – | – | CCn1nc(C2CC2)cc1Nc1nc(C(=O)NCCCCCNc2cccc3c2C(=O)N(C2CCC(=O)NC2=O)C3=O)nc2[nH]c3cc(-c4c(C)noc4C)c(OC)cc3c12 (stereo not shown) [compound 10]
25 | 8 | 1.6 | – | – | CCn1nc(C2CC2)cc1Nc1nc(C(=O)NCCCCCCNc2cccc3c2C(=O)N(C2CCC(=O)NC2=O)C3=O)nc2[nH]c3cc(-c4c(C)noc4C)c(OC)cc3c12 (stereo not shown) [compound 11]
26 | 33 | 1.2 | – | – | CCn1nc(C2CC2)cc1Nc1nc(C(=O)NCCOCCOCCOCCNc2cccc3c2C(=O)N(C2CCC(=O)NC2=O)C3=O)nc2[nH]c3cc(-c4c(C)noc4C)c(OC)cc3c12 (stereo not shown) [compound 14]
27 | 1.7 | 0.7 | – | – | CCn1nc(C2CC2)cc1Nc1nc(C(=O)NCCCOCCCCOCCCNc2cccc3c2C(=O)N(C2CCC(=O)NC2=O)C3=O)nc2[nH]c3cc(-c4c(C)noc4C)c(OC)cc3c12 (stereo not shown) [compound 15]
28 | 5.4 | 2.9 | – | – | CCn1nc(C2CC2)cc1Nc1nc(COCCCCNc2cccc3c2C(=O)N(C2CCC(=O)NC2=O)C3=O)nc2[nH]c3cc(-c4c(C)noc4C)c(OC)cc3c12 (stereo not shown) [compound 18]
29 | 3.2 | 0.9 | – | – | CCn1nc(C2CC2)cc1Nc1nc(CNCCCOCCOCCOCCCNc2cccc3c2C(=O)N(C2CCC(=O)NC2=O)C3=O)nc2[nH]c3cc(-c4c(C)noc4C)c(OC)cc3c12 (stereo not shown) [compound 20]
30 | 25.1 | 3.5 | – | – | CCn1nc(C2CC2)cc1Nc1nc(C(=O)NCCOCCOCCOCCOCCNc2cccc3c2CN(C2CCC(=O)NC2=O)C3=O)nc2[nH]c3cc(-c4c(C)noc4C)c(OC)cc3c12 (stereo not shown) [compound 25]
31 | 2 | 0.7 | – | – | CCn1nc(C2CC2)cc1Nc1nc(C(=O)NCCCOCCOCCOCCCNc2cccc3c2CN(C2CCC(=O)NC2=O)C3=O)nc2[nH]c3cc(-c4c(C)noc4C)c(OC)cc3c12 (stereo not shown) [compound 67]
32 | 4.1 | 1.2 | – | – | CCn1nc(C2CC2)cc1Nc1nc(C(=O)NCCCOCCOCCOCCNc2cccc3c2CN(C2CCC(=O)NC2=O)C3=O)nc2[nH]c3cc(-c4c(C)noc4C)c(OC)cc3c12 (stereo not shown) [compound 68]
33 | 16.1 | 2.9 | – | – | CCn1nc(C2CC2)cc1Nc1nc(C(=O)NCCCOCCOCCNc2cccc3c2CN(C2CCC(=O)NC2=O)C3=O)nc2[nH]c3cc(-c4c(C)noc4C)c(OC)cc3c12 (stereo not shown) [compound 69]
34 | 41 | 8.5 | – | – | CCn1nc(C2CC2)cc1Nc1nc(C(=O)NCCOCCOCCOCCOCCCc2cccc3c2CN(C2CCC(=O)NC2=O)C3=O)nc2[nH]c3cc(-c4c(C)noc4C)c(OC)cc3c12 (stereo not shown) [compound 70]
35 | 4.2 | 1.2 | – | – | CCn1nc(C2CC2)cc1Nc1nc(C(=O)NCCCOCCOCCOCC#Cc2cccc3c2CN(C2CCC(=O)NC2=O)C3=O)nc2[nH]c3cc(-c4c(C)noc4C)c(OC)cc3c12 (stereo not shown) [compound 72]
